Measurements published in patent US4328242A, “α-(3,4,5-Trimethoxyhenzoyl)thiopropionyl-glycine” (Ausoria Farmaceutici S.r.l., priority 1980, dated 1982).
Read-outs that look alike come from different tables or passages of the source.

Legend:
[1] = Clinical tolerance with respect to gastric reactions; settings: in vivo
rats [2] = experiment: Regenerative action in partial hepatectomy; format: in vivo; settings: partial hepatectomy (70% excision), 200 and 400 mg/kg oral, six days
rats [3] = experiment: Bronchosecretolithic activity in rats (sodium fluorescine method); format: in vivo; settings: 300 mg/kg intraperitoneally
Description: The secretolithic activity of TBPG has been determined in comparison to α-mercaptopropionylglycine by administering 300 mg/kg of the substance intraperitonally and comparing with 135 mg/kg of α-mercaptopropionylglycine administered also intraperitoneally. The doses are equimolar. The method is based on the use of sodium fluorescine described by H. M. Mawatari (Experimental Studies on the Expectorant Action of Several Drugs, Kogoshima Daigakeu Igakeu Zasshi 27, 561, 1976).

[4] = tested on: albino Sprague-Dawley rats; experiment: Toxicity in the fetus, rats; format: in vivo; settings: daily oral and subcutaneous, 250 and 500 mg/kg, four weeks prior to coupling and twenty days of gestation
Description: Toxicity in the fetus of TBPG has been studied in albino Sprague-Dawley rats and in New Zealand rabbits. In the case of rats both male and female, the treatment has been initiated four weeks prior to coupling and then has been continued only in the females during the twenty days of gestation.
In the case of female rabbits, the treatment has been carried out during the twenty eight days of gestation.

[5] = Isothermic (accelerated) stability according to the method of Garret, TLC; format: physicochemical
Description: The tests of accelerated stability have been carried out with the substance in powder form, that is in glass vials, hermetically closed with a plastic screw cap and also with the substance dissolved in water, that is 500 mg in 10 cc in a transparent glass container of 20 cc capacity closed with a plastic screw cap.
The production of impurities, if any, due to degradation of the substance, has been determined by means of TLC.

Rats [6] = experiment: Acute toxicity in rats; format: in vivo; settings: 20 tested
Description: The acute toxicity has been studied with Swiss albino rats and Wistar albino rats and in both instances, animals of both sexes have been used. The product is administered orally and endoperitoneally and the period of observation is ten days after the initial treatment. The values of DL50 by the statistical method with confidential limits up to 95% are calculated by means of the method of probits reported in Table I. Probits is a statistical unit of probable deviation used in biological assays; equal to the normal equivalent deviate increased by 5, used to make all normal equivalent deviation values positive.

guinea pigs = experiment: Antibronchospastic activity, histamine aerosol; format: in vivo; settings: oral, rectal or inhalation, 200 and 400 mg/kg
Description: Histamine administered in the form of an aerosol has caused in guinea pigs symptoms of broncho-spasm accompanied by convulsions, irreversible collapse and death.

rats [7] = experiment: Action on the period of sleep induced by barbiturates; format: in vivo; settings: rats intoxicated with CCl4; 200 and 400 mg/kg orally, two days; clear correlation between dosage and effect
Description: The activity of TBPG administered for two days in the dose of 200 and 400 mg/kg orally, has been determined on the basis of the reduction of the period of sleep induced by Nembutal on rats intoxicated with CCl4.

[8] = Stability in reducing medium (SO2); format: physicochemical; settings: 25 mg/ml, sodium bisulfite calculated as SO2, refluxed three hours
Description: In the presence of SO2 --solutions containing 25 mg/ml of TBPG and MPG respectively in the presence of sodium bisulfite calculated as SO2 are warmed and refluxed for a period of three hours.

Stability to moisture = format: physicochemical; settings: open vials, 90% relative humidity, a month
Description: Samples of TBPG and MPG have been maintained in open vials at room temperature under conditions of 90% relative humidity and at 50° C. always with 90% relative humidity. After a month of exposure, the following observations have been made.

Mice = experiment: Acute toxicity in mice; format: in vivo; settings: 20 tested
Acute toxicity in mice = format: in vivo; settings: mouse, in vivo; for mortality at 240 h: read-out: % Death; for LD50 at 240 h: 10 days observation, probits, read-out: DL50 mg/kg (Confidential Limits)
anaesthesized cats = experiment: Pharmacodynamics in anaesthesized cats; format: in vivo; settings: up to 50 mg/kg intravenously
rabbits = experiment: Subchronic toxicity, rectal route; format: in vivo; settings: eight consecutive weeks
dogs = experiment: Chronic toxicity in dogs; format: in vivo; settings: 24 weeks, 125 and 250 mg/kg oral, 200 mg/kg by inhalation
Description: The chronic toxicity of TBPG has been investigated in rats and dogs treated for a period of 24 weeks with 125 mg/kg and 250 mg/kg by the oral route and 200 mg/kg by inhalation.

COc1cc(C(=O)SC(C)C(=O)NCC(=O)O)cc(OC)c1OC (stereo not drawn) [TBPG, α-(3,4,5-trimethoxybenzoyl)thiopropionylglycine]
clinical tolerance with respect to gastric reactions [1]: optimum clinical tolerance | regeneration of the hepatic tissue (rats [2]): favoring the regeneration of the hepatic tissue in statistically significant manner | bronchosecretolithic activity (rats [3]): 34.4% | toxicity in the fetus (deformation, number and weight of living offspring) [4]: has not induced any deformation in the fetus and has not affected the number and the weight of the living offspring | Chromatographic Impurities ([5]; Powder, 60°, 320 hours): Absent | Chromatographic Impurities ([5]; Powder, 70°, 120 hours): Absent | Chromatographic Impurities ([5]; Powder, 70°, 240 hours): Absent | Chromatographic Impurities ([5]; Powder, 80°, 45 hours): Absent | Chromatographic Impurities ([5]; Powder, 80°, 180 hours): Absent | Chromatographic Impurities ([5]; Solution (500 mg in 10 cc water), 60°, 0 hours): Absent | Chromatographic Impurities ([5]; Solution (500 mg in 10 cc water), 60°, 320 hours): Absent | degraded at 640 h ([5]; Solution (500 mg in 10 cc water), 60°, 640 hours, read-out: Chromatographic Impurities): 0.5% | degraded at 960 h ([5]; Solution (500 mg in 10 cc water), 60°, 960 hours, read-out: Chromatographic Impurities): 0.7% | degraded at 1280 h ([5]; Solution (500 mg in 10 cc water), 60°, 1280 hours, read-out: Chromatographic Impurities): 1.2% | degraded at 1600 h ([5]; Solution (500 mg in 10 cc water), 60°, 1600 hours, read-out: Chromatographic Impurities): 1.3% | Chromatographic Impurities ([5]; Solution (500 mg in 10 cc water), 70°, 180 hours): Absent | degraded at 240 h ([5]; Solution (500 mg in 10 cc water), 70°, 240 hours, read-out: Chromatographic Impurities): 1.1% | degraded at 480 h ([5]; Solution (500 mg in 10 cc water), 70°, 480 hours, read-out: Chromatographic Impurities): 1.2% | Chromatographic Impurities ([5]; Solution (500 mg in 10 cc water), 80°, 45 hours): Absent | degraded at 90 h ([5]; Solution (500 mg in 10 cc water), 80°, 90 hours, read-out: Chromatographic Impurities): 1.2% | degraded at 120 h ([5]; Solution (500 mg in 10 cc water), 80°, 120 hours, read-out: Chromatographic Impurities): 1.3% | No. of Animals Dead (Rats [6]; i.p., 1500 mg/kg): 0 | No. of Animals Dead (Rats [6]; i.p., 2000 mg/kg): 6 | No. of Animals Dead (Rats [6]; i.p., 2500 mg/kg): 9 | No. of Animals Dead (Rats [6]; i.p., 3000 mg/kg): 14 | No. of Animals Dead (Rats [6]; i.p., 3500 mg/kg): 17 | No. of Animals Dead (Rats [6]; orally, 3000 mg/kg): 1 | No. of Animals Dead (Rats [6]; orally, 4000 mg/kg): 6 | No. of Animals Dead (Rats [6]; orally, 5000 mg/kg): 9 | No. of Animals Dead (Rats [6]; orally, 6000 mg/kg): 12 | No. of Animals Dead (Rats [6]; orally, 7000 mg/kg): 17 | period of time between administration of the histamine aerosol and appearance of bronchospastic symptoms (guinea pigs): increased very substantially | reduction of the period of sleep induced by Nembutal (rats [7]): very substantial | stability in reducing medium [8]: undergoes no physico-chemical change or organoleptic change | stability to moisture (Stability to moisture; 50° C.): slight yellow color, but no degradation products | stability to moisture (Stability to moisture; room temperature (t.a.)): no decomposition | No. of Animals Dead (Mice; i.p., 1500 mg/kg): 0 | No. of Animals Dead (Mice; i.p., 2000 mg/kg): 8 | No. of Animals Dead (Mice; i.p., 2500 mg/kg): 10 | No. of Animals Dead (Mice; i.p., 3000 mg/kg): 13 | No. of Animals Dead (Mice; i.p., 3500 mg/kg): 18 | No. of Animals Dead (Mice; orally, 3000 mg/kg): 1 | No. of Animals Dead (Mice; orally, 4000 mg/kg): 6 | No. of Animals Dead (Mice; orally, 5000 mg/kg): 10 | No. of Animals Dead (Mice; orally, 6000 mg/kg): 15 | No. of Animals Dead (Mice; orally, 7000 mg/kg): 18 | mortality at 240 h (Acute toxicity in mice; ip, 1500 mg/kg): 0% | mortality at 240 h (Acute toxicity in mice; ip, 2000 mg/kg): 40% | mortality at 240 h (Acute toxicity in mice; ip, 2500 mg/kg): 50% | mortality at 240 h (Acute toxicity in mice; ip, 3000 mg/kg): 65% | mortality at 240 h (Acute toxicity in mice; ip, 3500 mg/kg): 90% | LD50 at 240 h (Acute toxicity in mice; ip, 95% limits (2192-2963)): 2530 mg/kg | mortality at 240 h (Acute toxicity in mice; po, orally, 3000 mg/kg): 5% | mortality at 240 h (Acute toxicity in mice; po, orally, 4000 mg/kg): 30% | mortality at 240 h (Acute toxicity in mice; po, orally, 5000 mg/kg): 50% | mortality at 240 h (Acute toxicity in mice; po, orally, 6000 mg/kg): 75% | mortality at 240 h (Acute toxicity in mice; po, orally, 7000 mg/kg): 90% | LD50 at 240 h (Acute toxicity in mice; po, orally, 95% limits (4539-5254)): 4860 mg/kg | arterial pressure (anaesthesized cats): low and temporary reduction | cardiac frequency, respiratory dynamics and electrocardiogram (anaesthesized cats): without any effect | tolerance (anaesthesized cats): very high tolerance | hematochemical data, hepatic and renal functions, autopsies and macro/microscopic controls of the main organs (rabbits; 400 mg/kg per day): have not shown any variations from the normal | behavior and body growth of the animals (rabbits; two suppositories per day equal to 400 mg/kg): has not caused any irregularities | chronic toxicity (symptoms, behavior, deaths, body growth, hematology, hepatic and renal functions, organs) (dogs): totally innocuous
